The star is where a group is joined. Decanoyl = CCCCCCCCCC(=O)*; CH2Cl = ClC*
How the values were obtained:
Assay type in all cases: cell-based, human
[1] = tested on: proteolytic processing of VEGF-DΔN; assay: Processing of VEGF-DΔN by 293EBNA cells (cleavage of C-terminal propeptide from VHD); details: for band representing mature VHD from VEGF-DΔN: 1, 10, 50, 100 μM, 18 hours
Text: (§1) An expression plasmid encoding a truncated derivative of human VEGF-D consisting of the N-terminal propeptide and the VHD tagged at the carboxyl terminus with the FLAG epitope (referred to as VEGF-DΔC) (FIG. 3, top panel) has been previously described (Stacker et al, J. Biol. Chem. 274 32127-32136, 1999). The VEGF-DΔC protein construct facilitates study of cleavage of the N-terminal propeptide from the VHD. The conditioned media of 293EBNA cells stably transfected with the VEGF-DΔC expression plasmid contain a mixture of VEGF-D proteins, including unprocessed VEGF-DΔC, and the proteolytically processed VHD. A second cell line was generated by stable transfection of 293EBNA cells with an expression construct encoding VEGF-DΔN, a truncated derivative of human VEGF-D consisting of the VHD tagged at the amino terminus with the FLAG epitope and C-terminal propeptide (FIG. 3, top panel). This protein construct facilitates study of cleavage of the C-terminal propeptide from the VHD. The conditioned media of 293EBNA cells expressing VEGF-DΔN contain a mixture of VEGF-D proteins, consisting of unprocessed VEGF-DΔN, and the proteolytically processed VHD. The VEGF-DΔN expression plasmid was constructed by replacing the 2-kb EcoRV fragment of the pAPEX-3 construct for full-length VEGF-D with the 2-kb EcoRV fragment of the pAPEX-3 construct for VEGF-DΔNΔC-FLAG (Stacker et al, J. Biol. Chem. 274 32127-32136, 1999).
(§2) The 293EBNA cell lines expressing VEGF-D-FULL-FLAG, VEGF-DΔC or VEGF-DΔN were seeded into 24-well plates (8×10^4 cells/well), in medium supplemented with Dec-RVKR-CMK dissolved in methanol, to a final concentration of 0, 1, 10, 50 or 100 μM. After 18 hours incubation (37° C., 10% CO2 in an humidified incubator), conditioned cell culture media were removed and clarified by centrifugation (5 minutes, 250×g, 4° C.). […] The precipitated VEGF-D species were then analysed by reducing SDS-PAGE and Western blotting using a biotinylated antibody against the VHD of human VEGF-D (R&D Systems), and Streptavidin-horse radish peroxidase conjugate (Zymed).

[2] = tested on: proteolytic processing of VEGF-DΔC; assay: Processing of VEGF-DΔC by 293EBNA cells (cleavage of N-terminal propeptide from VHD); details: for band representing mature VHD from VEGF-DΔC: 1, 10, 50, 100 μM, 18 hours
Text: as §1
The 293EBNA cell lines expressing VEGF-D-FULL-FLAG, VEGF-DΔC or VEGF-DΔN were seeded into 24-well plates (8×10^4 cells/well), in medium supplemented with Dec-RVKR-CMK dissolved in methanol, to a final concentration of 0, 1, 10, 50 or 100 μM. After 18 hours incubation (37° C., 10% CO2 in an humidified incubator), conditioned cell culture media were removed and clarified by centrifugation (5 minutes, 250×g, 4° C.). VEGF-D species were immunoprecipitated from conditioned media of 293EBNA VEGF-DΔC cells by addition of M2-agarose beads (Sigma-Aldrich), that bind the FLAG epitope attached to the carboxyl-terminus of the VHD, and from conditioned media of 293EBNA VEGF-DΔN cells by addition of A2 antiserum, that binds to epitopes within the VHD (Stacker et al, J. Biol. Chem. 274 32127-32136, 1999), followed by incubation with protein-A sepharose beads. Beads and bound proteins were recovered by centrifugation (5 minutes, 250×g, 4° C.) and washed twice with Tris-buffered saline (TBS; 50 mM Tris-Cl, 150 mM NaCl, pH 8.0). The precipitated VEGF-D species were then analysed by reducing SDS-PAGE and Western blotting using a biotinylated antibody against the VHD of human VEGF-D (R&D Systems), and Streptavidin-horse radish peroxidase conjugate (Zymed).

[3] = tested on: proteolytic processing of VEGF-D; assay: Processing of VEGF-D secreted by 293EBNA cells expressing VEGF-D-FULL-N-FLAG (immunoprecipitation/Western blot); details: for proteolytic processing of full-length VEGF-D: 100 μM
Protocol: 293EBNA cells stably transfected with an expression construct encoding VEGF-C-FULL-N-Myc (full-length VEGF-C tagged with Myc at the N-terminus) or VEGF-D-FULL-N-FLAG (full-length VEGF-D tagged with FLAG at the N-terminus) secrete fully and partially processed forms of VEGF-C or VEGF-D into the culture medium (Joukov et al., EMBO J. 16:3898-3911 1997; Stacker et al., J. Biol. Chem. 274: 32127-32136, 1999). These cells were grown overnight in 24-well plates, seeded with 8×10^4 cells per well. At the time when cultures were initiated in these plates, growth medium was supplemented with Dec-RVKR-CMK (Calbiochem) (dissolved in methanol) to a final concentration of 0, 1, 10, 50 or 100 μM. Solvent control cultures were also established, in which the medium was supplemented with methanol at concentrations equal to those present in the cultures treated with inhibitor. After 18 hours of growth (at 37° C., 10% CO2 in a humidified environment), conditioned cell culture medium was removed from the cells and cleared by centrifugation (5 minutes, 250×g, 4° C.).
VEGF-C species were immunoprecipitated from conditioned medium by addition of anti-VEGF-C antibody that binds the VHD and C-terminal propeptide (R&D Systems). VEGF-D species were immunoprecipitated by addition of A2 antiserum that binds within the VHD of VEGF-D (Stacker et al., J. Biol. Chem. 274: 32127-32136, 1999). Immune complexes were allowed to form for 2 hours at 4° C. with gentle agitation and precipitated by addition of 10 μl of protein A sepharose beads and incubation for 2 hours at 4° C. with gentle agitation. Protein A sepharose complexes were recovered by centrifugation (5 minutes, 250×g, 4° C.) and washed twice with ice cold 50 mM Tris, 150 mM NaCl, pH 8.0. The precipitated VEGF-C and VEGF-D species were then analysed by Western blot using biotinylated antibodies against the VHD and C terminus of VEGF-C, or the VHD of VEGF-D (R&D Systems) and streptavidin-horse radish peroxidase conjugate (Zymed) (FIGS. 1 and 2). […]
as §2, with “μM.” for “μM. After 18 hours incubation (37° C., 10% CO2 in an humidified incubator), conditioned cell culture media were removed and clarified by centrifugation (5 minutes, 250×g, 4° C.).”

Substance: Decanoyl-Arg-Val-Lys-Arg-chloromethylketone (Decanoyl-RVKR-CH2Cl) [Dec-RVKR-CMK]
- proteolytic processing of VEGF-DΔN ([1]; 100 μM): completely blocked
- band representing mature VHD from VEGF-DΔN [1]: reduced in abundance in a dose dependent manner
- band representing mature VHD from VEGF-DΔN ([1]; listed as dec-RVKR-CMK): blocked each of these processing events in a dose-dependent fashion
- proteolytic cleavage of the N-terminal propeptide from the VHD, at both Major and Minor cleavage sites [2]: completely abrogated
- proteolytic processing of VEGF-DΔC ([2]; 100 μM): completely blocked
- band representing mature VHD from VEGF-DΔC [2]: reduced in abundance in a dose dependent manner
- band representing mature VHD from VEGF-DΔC ([2]; listed as dec-RVKR-CMK): blocked each of these processing events in a dose-dependent fashion
- abundance of fully and partially processed forms of VEGF-D ([3]; 0, 1, 10, 50 or 100 μM, 18 hours, Western blot): dramatically reduced in abundance in a dose-dependent manner
- proteolytic processing of full-length VEGF-D ([3]; 18 hours): totally blocked
- proteolytic processing of full-length VEGF-D ([3]; 18 hours, listed as dec-RVKR-CMK): complete inhibition
- proteolysis of VEGF-D-FULL-N-FLAG ([3]; concentrations lower than 100 μM): incompletely inhibited

— US20070224194A1, “Methods for Inhibiting Angiogenesis and/or Lymphangiogenesis” (LUDWIG INSTITUTE FOR CANCER RESEARCH, priority 2004, published 2007)
